According to patent US20160243112A1, “TREATMENTS FOR ALZHEIMER'S RELATED DISEASES AND DISORDERS” (Alkermes, Inc., priority 2015, published 2016):
Counter-ions that a name gives are not always drawn.

Legend:
[1] = target: T1, cloned human NMDA receptor (NR1/NR2A) channel (Homo sapiens, UniProt Q05586+Q12879); experiment: FLIPR Ca++ flux assay in NR1/NR2A expressing HEK cells; format: cell-based
T1 construct: expressed in transfected cells; host or cells: HEK293
Description: (§1) The NMDA receptor is an ionotropic glutamate receptor that forms a cation-selective channel. Test articles were assessed for their ability to inhibit calcium flux produced by a positive control agonist (100 μM Glutamic acid+20 μM Glycine) in cloned human NMDA receptor (NR1/NR2A) channel (encoded by the GRIN1 and GRIN2A genes) expressing HEK293 cells. A Fluo-8 calcium kit and a Fluorescence Imaging Plate Reader ([…]™) instrument was used to measure calcium flux. The potential antagonist effect of each test article was measured at eight concentrations (0.1, 0.3, 1, 3, 10, 30, 100, 300 μM; n=4 per concentration) after activating NR1/NR2A channel with the positive control agonist (100 μM Glutamic acid+20 μM Glycine).
as §1

[2] = test system: olfactory bulbectomized (OBX) rat; experiment: Efficacy study in an animal model of agitation: open field locomotor activity in the OBX rat; format: in vivo; conditions: OBX rats; single s.c. injection 30 min before test; Compound-1 10 and 30 mg/kg
Description: The objective of this study is to assess the efficacy of Compound-1 in an animal model of agitation: the olfactory bulbectomized (OBX) rat.
(§2) The study design included 4 treatment groups. Rats were assigned to their respective treatments by stratifying into groups based on body weight and arena. The experiment was carried out on a single day.
(§3) Forty-four male Sprague Dawley rats (Charles River, Raleigh, N.C.) were used for this study. Rats were single housed and weighed 200-225 g upon receipt. All rats were maintained on a 12 h light-12 h dark cycle with free access to food and water. Husbandry was conducted in accordance with the 2011 Guide for the Care and Use of Laboratory Animals (NRC, 2011).
(§4) Subcutaneous doses were administered via flank injection at a dose volume of 1 mL/kg 30 minutes before behavioral testing. Dose volumes were adjusted for the weight of the animal on the day of the experiment.
(§5) OBX rats and their weight-matched non-surgery controls were allowed to acclimate/recover from the surgical procedure for at least 4 weeks to permit the onset of the behavioral deficit. Rats were handled periodically throughout this acclimation period to prevent excessive aggression. […]
The following parameters were assayed: • 1. […] The behavior was recorded and analyzed by an automated tracking system (Med Associates). […]

[3] = test system: olfactory bulbectomized (OBX) rat; experiment: Efficacy study in an animal model of anxiety: marble burying in the OBX rat; format: in vivo; conditions: OBX rats; 10 mg/kg single s.c. injection 30 min before 20 min test
Description: Rodents will also bury non-aversive unconditioned objects, such as food pellets and glass marbles; an effect reversible by compounds that have anxiolytic efficacy.
as §2
as §3, with “Thirty-two” for “Forty-four”
as §4, §5
Marbles were considered “buried” if more than ⅔ surface was not visible. The number of uncovered/buried marbles was recorded and photographed by experimenter blind to drug treatment. […]

[4] = Repeat dose general toxicology studies of up to six weeks; format: in vivo; conditions: rats, daily oral gavage up to six weeks
Text: NMDA antagonists are associated with a wide range of serious toxicities, including neurodegeneration. However, the therapeutic index of an NMDA antagonist can vary widely and is correlated with a property referred to as trapping at the drug binding site within the NMDA receptor channel. Higher trapping agents show increased toxicity relative to lower trapping agents and a reduced therapeutic index. Compounds of Formula I, or a Compound of Table 1, preferably Compound-1, have been evaluated in repeat dose general toxicology studies of up to six weeks in duration in both rats and dogs. In both species, Compounds of Formula I, or a Compound of Table 1, preferably Compound-1, were given daily by oral gavage at doses producing plasma concentrations of the drug that would exceed the expected human therapeutic exposures by at least 30-fold. […] This observation is consistent with the concept of the low trapping nature of Compounds of Formula I, or a Compound of Table 1, preferably Compound-1, and an improved therapeutic index over other NMDA antagonists characterized as high trapping agents.

[5] = target: T2, PCP binding site of NMDA receptors (Rattus norvegicus, UniProt P35439); experiment: CEREP NMDA PCP site binding study (PCP antagonist radioligand assay #0124)
T2 construct: NMDA receptors in rat cerebral cortex cells; tissue CEREP #0124; host or cells: rat cerebral cortex
Description: The specific ligand binding to the receptors is defined as the difference between the total binding and the nonspecific binding determined in the presence of an excess of unlabelled ligand. […] The inhibition constants (Ki) were calculated using the Cheng Prusoff equation (Ki=IC50/(1+(L/KD)), where L=concentration of radioligand in the assay, and KD=affinity of the radioligand for the receptor).

Sprague Dawley rat = experiment: Open field test of locomotor activity in non-olfactory bulbectomized Sprague Dawley rats; format: in vivo; conditions: 10 mg/kg s.c. 30 min before 30 min test, vs vehicle
Text: Significant changes in locomotor activity may indicate an abnormal response to a drug (e.g., psychomotor retardation, agitation or behavioral sensitization). The Open field test is a commonly used qualitative and quantitative measure of general locomotor activity and willingness to explore in rodents. The objective of this study is to evaluate the effect of Compound-1 on locomotor activity in the (non-olfactory bulbectomized) rat. This study serves as a control experiment for the agitation and anxiety assays described above.
The study design included 2 treatment groups. Rats were randomized into their respective treatments. The experiment was carried out on a single day.
as §3, with “Sixteen” for “Forty-four”
as §4
Rats were allowed to acclimate to the facility for 1 week before behavioral testing. Rats were placed in the Open field arena 30 minutes post-drug administration for a 30 min test. This experiment was run under dim light and low white noise conditions.
The following parameters were assayed:
1. Distance travelled (cm)
3. Stereotypy counts (arbitrary unit)
4. Number of rears (exploratory behavior)
5. Average velocity (cm/s)
The behavior was recorded and analyzed by an automated tracking system (Med Associates). GraphPad Prism 6.0 was used to prepare graphs and to perform data analysis including one-way ANOVA or t-test analysis of locomotor activity where appropriate.

T1 sequence (Q12879 23-1464, other chains not shown): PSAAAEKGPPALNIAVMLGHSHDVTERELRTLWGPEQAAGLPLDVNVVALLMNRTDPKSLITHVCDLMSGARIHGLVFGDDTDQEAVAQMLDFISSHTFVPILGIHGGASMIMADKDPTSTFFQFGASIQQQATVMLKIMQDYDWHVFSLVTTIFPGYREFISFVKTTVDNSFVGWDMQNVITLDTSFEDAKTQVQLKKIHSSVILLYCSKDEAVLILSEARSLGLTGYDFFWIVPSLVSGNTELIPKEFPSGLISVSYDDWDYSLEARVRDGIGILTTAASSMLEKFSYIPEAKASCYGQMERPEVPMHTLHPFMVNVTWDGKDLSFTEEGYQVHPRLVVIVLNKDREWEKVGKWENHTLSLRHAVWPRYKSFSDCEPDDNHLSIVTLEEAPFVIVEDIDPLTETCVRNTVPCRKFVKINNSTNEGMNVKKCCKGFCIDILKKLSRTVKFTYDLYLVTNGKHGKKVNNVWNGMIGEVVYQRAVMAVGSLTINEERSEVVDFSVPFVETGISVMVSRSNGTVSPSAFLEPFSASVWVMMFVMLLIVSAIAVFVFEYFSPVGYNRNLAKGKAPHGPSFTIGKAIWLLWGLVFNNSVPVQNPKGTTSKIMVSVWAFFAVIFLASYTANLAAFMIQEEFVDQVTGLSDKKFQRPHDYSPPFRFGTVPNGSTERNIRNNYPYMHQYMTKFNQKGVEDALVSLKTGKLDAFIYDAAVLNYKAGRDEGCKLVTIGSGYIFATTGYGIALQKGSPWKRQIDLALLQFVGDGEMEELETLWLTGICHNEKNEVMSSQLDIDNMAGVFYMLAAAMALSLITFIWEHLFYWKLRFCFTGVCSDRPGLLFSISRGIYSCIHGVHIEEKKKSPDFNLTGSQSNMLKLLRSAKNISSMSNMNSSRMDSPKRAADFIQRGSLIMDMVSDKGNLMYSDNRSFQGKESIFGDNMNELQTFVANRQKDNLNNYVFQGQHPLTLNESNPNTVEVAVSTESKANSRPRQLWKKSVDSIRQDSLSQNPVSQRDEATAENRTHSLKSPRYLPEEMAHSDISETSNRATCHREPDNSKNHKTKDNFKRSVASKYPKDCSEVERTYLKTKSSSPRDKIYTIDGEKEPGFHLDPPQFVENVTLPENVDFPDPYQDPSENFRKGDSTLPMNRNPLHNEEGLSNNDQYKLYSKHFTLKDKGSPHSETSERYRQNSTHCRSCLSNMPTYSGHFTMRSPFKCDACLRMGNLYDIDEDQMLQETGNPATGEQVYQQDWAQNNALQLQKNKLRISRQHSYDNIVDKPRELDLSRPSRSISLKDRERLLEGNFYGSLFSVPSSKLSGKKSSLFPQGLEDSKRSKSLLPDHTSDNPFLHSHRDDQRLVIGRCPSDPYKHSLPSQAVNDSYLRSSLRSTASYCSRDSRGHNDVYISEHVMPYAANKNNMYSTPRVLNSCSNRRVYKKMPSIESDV

Row | Compound | IC50 [1] | also measured
1 | CN1CC[C@@]23CCCCC2[C@@H]1Cc1ccc(-c2nnc(N)s2)cc13 (stereo partly shown) | 35.5 µM | –
2 | CN1CC[C@@]23CCCCC2[C@@H]1Cc1ccc(-c2nnc(C(F)(F)F)s2)cc13 (stereo partly shown) | > 500 µM | –
3 | Cc1nnc(-c2ccc3c(c2)[C@]24CCCC[C@@H]2[C@H](C3)N(C)CC4)s1 [Compound-3, 2-methyl-5-((4bS,9S)-11-methyl-6,7,8,8a,9,10-hexahydro-5H-9,4b-(epiminoethano)phenanthren-3-yl)-1,3,4-thiadiazole hydrochloride] | 94 µM | –
4 | O=C(O)c1ccc2c(c1)[C@]13CCCC[C@@H]1[C@H](C2)N(CCc1ccccc1)CC3 | > 500 µM | –
5 | CN1CC[C@@]23CCCC[C@@H]2[C@@H]1Cc1ccc(-c2nncs2)cc13 [Compound-2, 2-((4bS,9S)-11-methyl-6,7,8,8a,9,10-hexahydro-5H-9,4b-(epiminoethano)phenanthren-3-yl)-1,3,4-thiadiazole hydrochloride] | 225 µM | –
6 | CNC1(c2ccccc2Cl)CCCCC1=O (stereo not shown) [Ketamine, reference compound] | 57.2 µM | –
7 | CN1CC[C@@]23CCCCC2[C@@H]1Cc1ccc(-c2cscn2)cc13 (stereo partly shown) | 50 µM | –
8 | CN1CC[C@@]23CCCCC2[C@@H]1Cc1ccc(-c2nnc(C(C)(C)C)s2)cc13 (stereo partly shown) | > 500 µM | –
9 | CN1CC[C@@]23CCCCC2[C@@H]1Cc1ccc(-c2nccs2)cc13 (stereo partly shown) | 33 µM | –
10 | Cc1nnc(-c2ccc3c(c2)[C@]24CCCCC2[C@H](C3)N(CCc2ccccc2)CC4)s1 (stereo partly shown) | > 500 µM | –
11 | Cc1nnc(-c2ccc3c(c2)[C@]24CCCC[C@@H]2[C@H](C3)N(C)CC4)o1 | > 500 µM | –
12 | CN1CC[C@@]23CCCCC2[C@@H]1Cc1ccc(-c2nnc(CO)s2)cc13 (stereo partly shown) | 47.5 µM | –
13 | COc1ccc2c(c1)[C@]13CCCC[C@@H]1[C@H](C2)N(C)CC3 [Dextromethorphan (DMX), Dextromethorphan, reference compound] | 107 µM | locomotor response (distance travelled) in open field [2]: blocks the locomotor response; burying response (marbles buried) [3]: blocked this burying response
14 | CN1CC[C@@]23CCCC[C@@H]2[C@@H]1Cc1ccc(C(N)=O)cc13 [Compound-1] | 225 µM | clinical changes ([4]; highest doses evaluated): increased bone fractures and abnormalities in incisors; neurodegeneration ([4]; when clinical signs were present): no evidence of neurodegeneration; locomotor response (distance travelled) in open field [2]: blocked this hyperlocomotor response; Ki [5]: 7.4 µM; mode of binding to the PCP binding site ([5]; rat cerebral cortex): binds competitively; burying response (marbles buried) [3]: blocked this burying response; effect on average velocity (Sprague Dawley rat): no effect; effect on jumping behavior (Sprague Dawley rat): no effect; effect on locomotor activity (distance travelled) (Sprague Dawley rat): no effect; effect on rearing (Sprague Dawley rat): no effect; effect on stereotypy (Sprague Dawley rat): no effect
15 | CN1CC[C@@]23CCCCC2[C@@H]1Cc1ccc(-c2nnc(C(C)(C)O)s2)cc13 (stereo partly shown) | > 500 µM | –
16 | CN1CC[C@@]23CCCC[C@@H]2[C@@H]1Cc1ccc(Br)cc13 | 49 µM | –
17 | c1ccc(C2(N3CCCCC3)CCCCC2)cc1 [Phencyclidine (PCP), Phencyclidine, reference compound] | 7.5 µM | –
18 | CN1CC[C@@]23CCCCC2[C@@H]1Cc1ccc(-c2ccsn2)cc13 (stereo partly shown) | 15 µM | –
